Reference: patent publication US20070155786A1, “Methods for treating oral aphthous stomatitis and oral mucositis” (priority 2004, published 2007)
Counter-ions that a name gives are not always drawn.

Tests used:
Format in all cases: in vivo, human
[1] = system: aphtha (canker sores); experiment: Case reports: mouth rinses with a quinoline derivative solution in patients with aphthae
Description: (§1) Hydroxychloroquine (HCQ) was obtained from Sanofi-Syntelabo, Inc. New York USA, quinine (Q) and quinidine sulfate were obtained from Rakah, Holon, Israel. The compounds were mixed with tap water. Chlorhexidine was obtained from LACER S.A., Barcelona, Spain.
A person, generally in good health, reported the presence of canker sores for several years (periodic recurrences of 3 to 4 episodes per year). […] The patient was seen five days after the appearance of the painful aphtha. They started oral rinses with 10 ml of hydroxychloroquine (HCQ) solution, 3.7 mg/ml, three times a day, each rinse for 3 to 5 min. […] They continued to rinse for about a week. No additional aphthous lesions appeared during 8 weeks of follow-up.
A person, in otherwise general good health, came with two painful major aphthae, one of 12 mm diameter on the left side of the lower lip mucosa and the second on the right latero-ventral side of the tongue, about 8 mm diameter. They reported the presence of recurrent aphthous lesions since they were […]. During the last year, they continuously suffered from recurrent episodes of major aphthae, with virtually no aphtae-free intervals. Each episode of aphthae usually lasted for 3 to 6 weeks. They started oral rinses with 10 ml of HCQ solution, 3.7 mg/ml, three times a day, each rinse for 3 to 5 min. […] Concomitantly, 2 new lesions of minor aphthae, 3 mm in diameter each, were seen, one on the left side of the upper lip mucosa and the other on the ventro-anterior side of the tongue. […] In total, they rinsed with the HCQ solution for 20 days.
A child, in otherwise general good health, reported the presence of recurrent aphthous lesions of different sizes for the last 2 years. The last episode had been about 3 months before examination. The lesions had disappeared within 2 weeks after using different conventional treatments. At clinical examination, one aphtha of about 3 mm diameter was found on the lower lip mucosa and another one about 6 mm diameter was found on the upper lip mucosa. Both lesions were painful. They started rinsing with 10 ml of HCQ solution, 2.5 mg/ml, three times a day, each rinse for 3 to 5 min. […] They reported to be free of any pain already after 24 hours from the start of rinsing. […], therefore, was able to eat everything. The patient was advised to continue rinsing with 10 ml of hydroxychloroquine (HCQ) solution, 3.7 mg/ml, three times a day, each rinse for 3 to 5 min for 7 additional days. […] They still continued with the rinses for 5 additional days, as recommended.
A person reported suffering from recurrent episodes of canker sores for many years, with 2 to 3 episodes per year. The last episode had occurred about 6 months before examination. They were diagnosed with diabetes mellitus, so that use of steroidal modalities for treatment of their aphthous lesions was contraindicated. […] They started rinsing with 10 ml of HCQ solution, 1.2 mg/ml, three times a day, each rinse for 3 to 5 min. After 24 hours from start of rinses they were free of any pain and was able to eat everything. […] They remained aphthae-free for 7 months.
A person, generally in good health, reports the presence of canker sores since childhood with about 8 to 10 recurrences per year. At clinical examination a minor painful aphtha was present on the mucosa of the lower lip. The ulcer was about 4-5 mm in diameter and was present for 8 days. […] They started to rinse with 10 ml of hydroxychloroquine (HCQ) solution, 1.2 mg/ml, three times a day, each rinse for 3 to 5 min.
A person presented a painful minor aphtha of about 3 mm in diameter in the right vestibulum of the lower jaw adjacent to the first molar. They reported the presence of pain and inconvenience for 2 days. In the past, they had experienced recurrences of such lesions every 3 to 4 months. They started to rinse with 10 ml of 0.085 mg/ml quinine solution for 3 to 5 minutes, about 5 to 7 times a day. […]

[2] = system: erosive lichen planus; experiment: Case report: rinse and swallow of quinine solution in a patient with erosive lichen planus
Description: as §1
A person presented diffuse erosions/ulcerations of the buccal, labial and lingual mucosae that were present for at least 6 months. They complained of pain and difficulty to eat and speak. The erosive/ulcerative lesions were clinically specific for erosive lichen planus. They started to rinse (for 5 to 10 min) and swallow about 10- 20 ml of 0.085 mg/ml quinine solution, 5 to 7 times a day. […] They were able to maintain a stable asymptomatic condition of their lichen planus by means of quinine solution during about 1 year follow-up period.

[3] = system: oral aphthous stomatitis and oral mucositis; experiment: General statements on treating oral aphthous stomatitis and oral mucositis in patients
Description: In experiments carried out with particular preferred compounds of the invention, the pain caused by ulcerative lesions disappeared often within hours, and the ulcers and other symptoms disappeared usually within days. For example, patients with life-long recurrent aphthae problems achieved quick relief of pains caused by aphthae ulcers after rinsing their mouth with aqueous solutions comprising said compounds. The effect is often enhanced when said quinoline derivative is used together with an antiseptic.
Quinine at levels up to 83 ppm is approved by FDA for use in beverages as a flavoring agent.
In other preferred embodiment of this invention, oral mucositis is treated by a quinine (Q) salt in solution or suspension, which is used several times a day for rinsing mouth without swallowing, followed by rinsing with chlorhexidine solution. The concentration of Q is preferably about 0.083 mg/ml, and chlorhexidine solution has preferably a concentration from 0.05% to 0.2%. The rinsing with each of the two components is preferably performed 3-5 times a day. Said Q solution may comprise Q dihydrochloride, Q hydrochloride, Q sulfate, and other Q salts. Said Q suspension may, for example, comprise Q sulfate. Stereoisomers of quinine and their salts, such as quinidine sulfate, have been also found active.

[4] = system: aphtha; experiment: Case reports: rinse with quinoline derivative solution followed by chlorhexidine rinse in patients with aphthae
Description: as §1
A person, generally in good health, presented a most painful, distressing major aphtha of approximately 1 cm diameter on the ventro-lateral tongue. They had suffered the presence of such lesions for several years (recurrences of 6 to 8 episodes per year). The current lesion had been present for about one week. During examination 2 lymph nodes were palpated in the floor of mouth, probably due to a secondary infection. They started to apply a rinse with 3.72 mg/cc HCQ solution (for 3 to 5 minutes) followed by a rinse with 0.12% chlorhexidine alcohol free solution (for about 1 minute), 3 times a day. Two days later, the patient was totally free of pain and the size of the aphtha diminished to about 7 mm diameter.
A person, presented a painful minor aphtha on the ventro-lateral part of the tongue. They reported its appearance about 1 week ago. In the past, frequent episodes of minor aphthae had occurred every 2 months. They started to rinse with 10 ml of quinine sulfate Solution 3 mg/cc (for 3 to 5 minutes) followed by a rinse with 0.12% chlorhexidine alcohol free solution (for about 1 minute), 3 times a day.

[5] = Example 7: 0.085 mg/ml quinine solution, rinse and swallow
[6] = Example 2: HCQ solution 3.7 mg/ml
[7] = Example 2: HCQ solution 3.7 mg/ml, three times a day
[8] = Example 3: HCQ solution 2.5 mg/ml, three times a day

C=C[C@H]1C[N@@]2CC[C@H]1C[C@H]2[C@H](O)c1ccnc2ccc(OC)cc12 [quinine]
time until ulcer healed completely ([1]; Example 6: 0.085 mg/ml quinine solution, 5 to 7 times a day): ≤ 4 days | time until pain and inconvenience disappeared ([1]; Example 6: person, minor aphtha about 3 mm, 10 ml 0.085 mg/ml quinine solution, 3 to 5 minutes, 5 to 7 times a day): 2 days | follow-up with no further recurrences ([1]; Example 10: 0.085 mg/ml quinine solution): about 6 months | time until disappearance of the aphtha ([1]; Example 10: 0.085 mg/ml quinine solution, rinse and swallow): about 4 days | time until free of any symptoms ([1]; Example 10: person, minor aphtha about 4 mm, 10 ml 0.085 mg/ml quinine solution, about 5 times per day, rinse 3 to 5 min and swallow): ≤ 24 h | erosive/ulcerative lesions after about 4 weeks [2, 5]: marked healing | symptoms of the lesions after about 4 weeks [2, 5]: completely asymptomatic | follow-up period with stable asymptomatic condition of lichen planus ([2]; Example 7: maintained by quinine solution): about 1 year | pain and masticatory function after 3 days ([2]; Example 7: person, rinse (5 to 10 min) and swallow 10-20 ml of 0.085 mg/ml quinine solution, 5 to 7 times a day): significant amelioration | outcome in patients with major aphtha accompanied by a secondary infection ([3]; mouth rinsing with 0.083 mg/ml of quinine, and optionally chlorhexidine, several minutes, several times a day): relief of pains and healing

C=C[C@H]1C[N@@]2CC[C@H]1C[C@H]2[C@H](O)c1ccnc2ccc(OC)cc12 [quinine sulfate]
time until pain decreased significantly ([4]; Example 9: person, minor aphtha, 10 ml quinine sulfate solution 3 mg/cc followed by 0.12% chlorhexidine rinse, 3 times a day): ≤ 24 h | time until all the inconvenience disappeared ([4]; Example 9: quinine sulfate solution 3 mg/cc followed by 0.12% chlorhexidine rinse, 3 times a day): ≤ 48 h

C=C[C@H]1C[N@@]2CC[C@H]1C[C@@H]2[C@@H](O)c1ccnc2ccc(OC)cc12 [quinidine sulfate]
activity in treating oral mucositis ([3]; general statement): active

CCN(CCO)CCCC(C)Nc1ccnc2cc(Cl)ccc12 (centres unmarked) [HCQ, Hydroxychloroquine]
follow-up without additional aphthous lesions ([1]; Example 1: HCQ solution 3.7 mg/ml, rinsed about a week): 8 weeks | state of the aphtha 24 hours after start of treatment ([1]; Example 1: minor aphtha, HCQ solution 3.7 mg/ml, three times a day): almost disappeared | time after start of treatment until free of any pain ([1]; Example 1: person, minor aphtha, rinses 10 ml HCQ solution 3.7 mg/ml, three times a day, 3 to 5 min): Twenty-four | new minor aphtha (3 mm) on the lip after 4 more days of rinsing [1, 6]: diminished significantly in its size | new minor aphtha (3 mm) on the tongue after 4 more days of rinsing [1, 6]: disappeared | pain from the two new minor aphthous lesions [1, 6]: did not cause any pain whatsoever | follow up with no new aphthous lesions ([1]; Example 2: HCQ solution 3.7 mg/ml, rinsed 20 days in total): 3 months | aphtha of the tongue (about 8 mm), 5 days later [1, 7]: completely disappeared | major aphtha of the lower lip (12 mm), 5 days later [1, 7]: decreased in size to about half its original size | major aphtha on the lower lip mucosa after 6 additional days ([1]; Example 2: HCQ solution 3.7 mg/ml, 5 + 6 days, left a pronounced scar): disappeared completely | time after start of rinses until pain completely disappeared ([1]; Example 2: person, two major aphthae, 10 ml HCQ solution 3.7 mg/ml, three times a day, 3 to 5 min): 24 h | diameter of aphtha on the lower lip after 5 days (initially about 3 mm) [1, 8]: about 1 mm | time from start of rinsing until free of any pain [1, 8]: 24 h | follow up after cessation of rinses without new aphthae ([1]; Example 3: HCQ solution 2.5 then 3.7 mg/ml): 5 weeks | time until aphtha on the lower lip disappeared completely after continuing with 3.7 mg/ml ([1]; Example 3: after 5 days at 2.5 mg/ml, HCQ solution 3.7 mg/ml three times a day): ≤ 2 days | lesion on upper lip (about 6 mm) after 5 days ([1]; Example 3: child, 10 ml HCQ solution 2.5 mg/ml, three times a day, 3 to 5 min): almost disappeared | aphthae-free period ([1]; Example 4: HCQ solution 1.2 mg/ml): 7 months | state of the aphtha after 7 days of rinsing ([1]; Example 4: HCQ solution 1.2 mg/ml, three times a day): almost disappeared | time from start of rinses until free of any pain ([1]; Example 4: person, diabetes mellitus, major aphthous lesion about 8 mm, 10 ml HCQ solution 1.2 mg/ml, three times a day): 24 h | follow up with no new aphthae ([1]; Example 5: HCQ solution 1.2 mg/ml): 4 months | time until aphtha completely disappeared ([1]; Example 5: HCQ solution 1.2 mg/ml, three times a day): three | time of rinses until no pain ([1]; Example 5: person, minor aphtha 4-5 mm, 10 ml HCQ solution 1.2 mg/ml, three times a day): one | diameter of the aphtha two days later (initially approximately 1 cm) ([4]; Example 8: 3.72 mg/cc HCQ rinse followed by 0.12% chlorhexidine rinse, 3 times a day): about 7 mm | state of the aphtha after 2 additional days of treatment ([4]; Example 8: 3.72 mg/cc HCQ rinse followed by 0.12% chlorhexidine rinse, 2 + 2 days): completely disappeared | time until totally free of pain ([4]; Example 8: person, major aphtha approx. 1 cm, probable secondary infection, 3.72 mg/cc HCQ rinse followed by 0.12% chlorhexidine rinse, 3 times a day): Two
